The record followed here is the COVID Moonshot data (paper PMC7615835).

A word on the AUC(0-inf): it is the area under the concentration-time curve extrapolated to infinity. High values mean more exposure, low ones less exposure. A word on the AUC(0-t): it is the area under the concentration-time curve up to a stated or last time point. Higher therefore signals high exposure. As usually defined, the MRT inf is a mean duration of stay, worked out from the concentration-time curve. The MRT last is a mean duration of stay, worked out from the concentration-time curve. As usually defined, the Vd is a proportionality between amount in the body and measured concentration, not a real space. Low readings indicate little distribution into tissue, high ones wide distribution into tissue. What is called clearance is the volume of plasma or blood freed of the substance per unit of time. High values mean a high capacity for elimination, low ones a low capacity for elimination. Broadly, the half-life is the time in which the quantity being followed falls by half. Read a low half-life as rapid decline. As a reminder, the logD is the decadic logarithm of the distribution of all forms, ionised or not, between an organic phase and buffer at a given pH. The low end stands for lower lipophilicity, the high end for higher lipophilicity. The CL/F is clearance divided by bioavailability, as obtained after extravascular dosing. By Cmax is commonly meant the maximum level reached in the sampled fluid or tissue. In general, Tmax refers to the time at which the peak concentration occurs. Usually bioavailability stands for dose-corrected exposure relative to a reference, in per cent. As usually defined, the fraction unbound is the share of the substance not bound to proteins or other matrix. One may read the microsomal CLint as the capacity of the preparation to metabolise the compound, expressed as a volume cleared per time. The low end stands for slow turnover, the high end for rapid turnover. As a reminder, the IC50 is the concentration at which inhibition is half-maximal. Usually Papp stands for a coefficient for how fast a substance crosses the barrier.

SMILES strings stand for the structures. “And” between values parts separate entries of the source, which are not always exact repeats. Equal values may be shown once.

For series [1] the following is noted: in vivo, iv.
Assay in series [2]: not given
This is another data set of the same source.

For series [3] the following is noted: rat; in vivo; po; 10.0 mg/kg.
Assay in series [4]: not given
The source holds these as a separate data set.

For series [5] the following is noted: human; plasma.
For series [6] the following is noted: mouse; plasma.
For series [7] the following is noted: human; liver_microsomes.
For series [8] the following is noted: mouse; liver_microsomes.
Series [9] deals with SARS-CoV-2 Main Protease (SARS-CoV-2) (UniProt P0DTD1).
For series [10] the following is noted: mouse; hepatocytes.
The conditions of series [11]: cattle; serum.
The conditions of series [12]: dog; liver_microsomes.
The conditions of series [13]: rat; plasma.
For series [14] the following is noted: helaace2.
For series [15] the following is noted: pampa.

As to `O=C(Nc1cnccc1C1CC1)C1CCNc2cc(Cl)c(Cl)cc21` (stereo not given), in [1] (rat, 0.5 mg/kg), the AUC(0-inf) was 144 ng·h/mL and 96.1 ng·h/mL; the AUC(0-t) was 142 ng·h/mL and 94.2 ng·h/mL; the C0 is 341 ng/mL and 180 ng/mL; the MRT inf is 46.2 min and 45.9 min. In series [1] (rat, 0.5 mg/kg), the MRT last is 40.6 min and 41 min; the Vd was 2.65 L/kg and 4.01 L/kg; the clearance was 57.7 mL/min/kg and 86.8 mL/min/kg; the half-life was 49.4 min and 48.2 min. This compound registered a CC50 (a549) of more than 9990 nM. Where the note is “mda-md-435”, this compound returned a CC50 of more than 9990 nM.

As to `O=C(Nc1cncc2ccccc12)[C@@H]1CCNc2cc(Cl)c(Cl)cc21` (stereo in doubt), in [1] (rat, 0.5 mg/kg), the AUC(0-inf) is 198 ng·h/mL and 170 ng·h/mL; the C0 is 559 ng/mL and 452 ng/mL; the MRT inf is 33.1 min and 29.5 min; the MRT last is 26.2 min and 27.9 min. Besides, in [1] (rat, 0.5 mg/kg), the Vd is 1.46 L/kg and 1.94 L/kg; the clearance is 49.6 mL/min/kg and 60.7 mL/min/kg. Also, in [1] (rat, 1.0 mg/kg), the AUC(0-inf) is 220 ng·h/mL and 249 ng·h/mL; the C0 was 324 ng/mL and 410 ng/mL; the mean residence time MRT inf is 44.1 min and 46 min; the MRT last is 44.8 min and 42.7 min. In series [1] (rat, 1.0 mg/kg), the Vd is 3.49 L/kg and 2.99 L/kg; the clearance was 75.9 mL/min/kg and 68 mL/min/kg; the half-life is 38.2 min and 32.5 min. In series [2], the logD was 3.4 and 3.54. Further, in series [3], the AUC(0-inf) came out at 257 ng·h/mL, the AUC(0-t) is 247 ng·h/mL, the CL/F came out at 653 mL/min/kg and the Cmax was found to be 40.4 ng/mL. Further, in series [3], the MRT last was 397 min; the Tmax was 120 min; the bioavailability was 10.2% (2×) and 11.9%; the half-life is 255 min. This compound yielded a logD in [4] of 3.8. Further, in series [5], the fraction unbound was 0.049 (2×) and 0.023; the recovery came out at 105%. In series [6], the fraction unbound worked out at 0.039 and the recovery is 98.1%. The same compound had a microsomal CLint in series [7] of 40 µL/min/mg. In series [8], the half-life came out at 9.3 min; the intrinsic metabolic clearance (microsomal CLint) is 290 µL/min/mg and 186 µL/min/mg. For the same compound, the IC50 in series [9] was < 50 nM and 47.4 nM. The half-life in series [10] amounted to 83 min. In [11], this compound gave a free fraction (fraction unbound) of 0.584 and a recovery of 70.6%. In series [12], this compound returned a half-life of 27.9 min and a microsomal CLint of 62.2 µL/min/mg. Besides, in [13], the fraction unbound is 0.033 (2×) and 0.029; the recovery came to 98.4%.

As to `N#Cc1cc(Cl)cc2c1NCCC2C(=O)Nc1cncc2ccccc12` (stereo not given), under “a549”, the CC50 was more than 9990 nM. The compound also had an IC50 in [9] of 242 nM.

Regarding `O=C(Nc1cncc2cc(CO)ccc12)C1CCOc2ccc(Cl)cc21` (stereo not given), in series [1] (rat, 0.5 mg/kg), the AUC(0-inf) was 187 ng·h/mL and 325 ng·h/mL; the AUC(0-t) is 182 ng·h/mL and 321 ng·h/mL; the C0 was 518 ng/mL and 742 ng/mL; the MRT inf was 36.2 min and 29.3 min. In series [1] (rat, 0.5 mg/kg), the MRT last was 26 min and 34 min; the Vd is 1.31 L/kg and 0.947 L/kg; the clearance was 44.6 mL/min/kg and 26.8 mL/min/kg; the half-life was determined as 27.7 min. Further, the logD in series [4] was determined as 2.2. For the same compound, in series [9], the IC50 came out at 1400 nM.

In the case of `Cc1ccc(CC(=O)Nc2cncc3ccccc23)cc1Cl`, the CC50 (a549) was more than 9990 nM. In series [9], this compound came in with an IC50 of 1090 nM.

In the case of `COCCN1CCC(C(=O)Nc2cncc3ccccc23)c2cc(Cl)ccc21` (stereo not given), the CC50 (a549) was more than 9990 nM. This compound showed an IC50 in series [9] of 564 nM.

The compound `CCCc1cc(Cl)cc(CC(=O)Nc2cncc3ccccc23)c1` yielded a CC50 (a549) of more than 9990 nM. In [9], this compound showed an IC50 of 2650 nM.

As for `CN(C)C(=O)C[C@]1(C(=O)Nc2cncc3ccccc23)CCOc2ccc(Cl)cc21` (stereo in doubt), the CC50 (vero) was more than 9990 nM. Besides, the 50% inhibitory concentration (IC50) in series [9] was 1300 nM.

Regarding `O=C(Nc1cncc2ccccc12)C1CCOc2c(OCc3ccncc3)cc(Cl)cc21` (stereo not given), the CC50 (a549) is more than 9990 nM. The compound also yielded an IC50 in series [9] of 3450 nM.

In the case of `CN(C)C(=O)CNCC1(C(=O)Nc2cncc3ccccc23)CCOc2ccc(Cl)cc21` (stereo not given), in series [4], the logD was determined as 2.7. For the same compound, in [9], the IC50 came out at 603 nM.

Compound `CC1Cn2nccc2CN1C(=O)CC1(C(=O)Nc2cncc3ccccc23)CCOc2ccc(Cl)cc21` (stereo not given) registered a CC50 (a549) of more than 9990 nM. In series [9], the half-inhibitory concentration (IC50) was 1560 nM and 2850 nM.

Consider `COc1ccc2cncc(NC(=O)C3(OC)CCOc4ccc(Cl)cc43)c2c1` (stereo not given), for which, in series [1] (mouse, 0.5 mg/kg), the total exposure AUC(0-inf) was 98.2 ng·h/mL and 108 ng·h/mL; the C0 was 246 ng/mL and 252 ng/mL; the MRT inf was 41.5 min and 34.1 min; the MRT last is 30.8 min and 28.1 min. For the same compound, in series [1] (mouse, 0.5 mg/kg), the Vd is 3.52 L/kg and 2.67 L/kg; the clearance was 84.9 mL/min/kg and 77.9 mL/min/kg; the half-life was 35.6 min and 29 min. The same compound registered a logD in [4] of 3.4. Moreover, the IC50 in [9] was 116 nM and 120 nM.

For the compound `O=C(Cc1ccc(Cl)c(Cl)c1)Nc1cncc2cnccc12`, the CC50 (a549) is more than 9990 nM. In addition, the IC50 in series [9] was 1850 nM.

Turning to `O=C(Cc1cccc(Cl)c1)Nc1cncc2cccc(F)c12`, the logD in series [4] came to 3.1. Further, the IC50 in series [9] was found to be 1310 nM.

As for `CCC(CC)COC(=O)[C@H](C)NP(=O)(OC[C@H]1O[C@@](C#N)(c2ccc3c(N)ncnn23)[C@H](O)[C@@H]1O)Oc1ccccc1` (stereo in doubt), the CC50 in series [14] was 10800 nM and 27000 nM and 16400 nM.

Take `COc1ccc(Cl)cc1OCCNC(=O)c1cc(=O)[nH]c2cccc(OC)c12`: in series [15], the apparent permeability coefficient (Papp) is 109 ×10⁻⁶ cm/s. Further, in series [9], the IC50 turned out to be 874 nM.

`COCCS(=O)(=O)N1Cc2ccc(Cl)cc2C(C(=O)Nc2cncc3ccccc23)C1` (stereo not given) showed a logD in series [4] of 2.3. The IC50 in [9] was 211 nM and 214 nM.

`COc1ccc2cncc(NC(=O)[C@]3(OC)CCOc4ccc(Cl)cc43)c2c1` (stereo in doubt) displayed a logD in series [4] of 3.4. For the same compound, the IC50 in [9] was 61.2 nM and 76.5 nM and 85.3 nM.

Take `COc1ccc(C[C@H](N)C(=O)N[C@H]2[C@@H](O)[C@H](n3cnc4c(N(C)C)ncnc43)O[C@@H]2CO)cc1` (stereo in doubt): the CC50 in series [14] is 325 nM and 831 nM and 504 nM.

As to `CNC(=O)c1cc2c(NC(=O)C3CCOc4ccc(Cl)cc43)cncc2s1` (stereo not given), in series [1] (rat, 0.5 mg/kg), the AUC(0-inf) is 267 ng·h/mL and 298 ng·h/mL; the AUC(0-t) was 263 ng·h/mL and 291 ng·h/mL; the C0 is 712 ng/mL and 752 ng/mL; the MRT inf was 55.4 min and 40.1 min. Moreover, in series [1] (rat, 0.5 mg/kg), the mean residence time MRT last was 35.8 min and 39.7 min; the Vd is 1.45 L/kg and 1.85 L/kg; the clearance is 36.2 mL/min/kg and 32.6 mL/min/kg; the half-life is 39.1 min and 113 min. Further, the logD in [4] came out at 3. In addition, in series [9], the concentration for half-maximal inhibition (IC50) was determined as 571 nM.
